Reference: US6635641B2 (Agouron Pharmaceuticals, Inc., priority 2000, dated 2003)
Counter-ions that a name gives are not always drawn. Like-named read-outs stand apart in the source and are kept apart here.

Key:
[1] = target: T1, phosphorylated VEGF-R2Δ50 (FLVK-P) (Homo sapiens, UniProt P35968, DEL940-989/E990V); assay: VEGF-R2 coupled spectrophotometric assay, phosphorylated construct (FLVK-P); format: biochemical
T1 construct: VEGF-R2Δ50 contains residues 806-939 and 990-1171; made in house; host or cells: baculovirus/insect cells
T1 sequence (P35968 with tags, fused parts or gaps DEL940-989/E990V limits assumed): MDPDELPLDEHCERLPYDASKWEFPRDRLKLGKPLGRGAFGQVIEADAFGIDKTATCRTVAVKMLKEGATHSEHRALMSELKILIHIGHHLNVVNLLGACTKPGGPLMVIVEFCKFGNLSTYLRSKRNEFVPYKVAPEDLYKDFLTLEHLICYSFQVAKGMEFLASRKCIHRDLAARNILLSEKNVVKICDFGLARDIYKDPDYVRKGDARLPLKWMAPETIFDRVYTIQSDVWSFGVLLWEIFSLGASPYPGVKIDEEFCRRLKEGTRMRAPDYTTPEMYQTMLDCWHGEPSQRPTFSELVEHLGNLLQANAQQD
Procedure, shortened: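 Continuous PK/LDH-coupled spectrophotometric read (NADH loss at 340 nm) with 5–40 nM enzyme in 200 mM Hepes pH 7.5. Phosphorylated construct run at 1 mM ATP, 25 mM MgCl2, 5.1 mM poly(E4Y1); unphosphorylated at 3 mM ATP, 60 mM MgCl2 plus 2 mM MnCl2, 20 mM poly(E4Y1). Ki values derived from varied inhibitor concentrations.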

[2] = target: T2, unphosphorylated VEGF-R2Δ50 (FLVK) (Homo sapiens, UniProt P35968, DEL940-989/E990V); assay: VEGF-R2 coupled spectrophotometric assay, unphosphorylated construct (FLVK); format: biochemical;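 also: Baculovirus-expressed cytosolic kinase domain, ADP formation linked via pyruvate kinase and lactate dehydrogenase to NADH oxidation, read as falling absorbance at 340 nm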
T2 construct: VEGF-R2Δ50 contains residues 806-939 and 990-1171; made in house; host or cells: baculovirus/insect cells
T2 sequence (P35968 with tags, fused parts or gaps DEL940-989/E990V limits assumed): as above
Protocol: A construct (VEGF-R2Δ50) of the cytosolic domain of human vascular endothelial growth factor receptor 2 (VEGF-R2) lacking the 50 central residues of the 68 residues of the kinase insert domain was expressed in a baculovirus/insect cell system. […] Autophosphorylation of the purified construct was performed by incubation of the enzyme at a concentration of 4 μM in the presence of 3 mM ATP and 40 mM MgCl2 in 100 mM Hepes, pH 7.5, containing 5% glycerol and 5 mM DTT, at 4° C. for 2 h.

FL-CHK-1 = target: T3, FL-CHK-1 (Homo sapiens, UniProt O14757); assay: CHK-1 coupled spectrophotometric assay (Syntide-2); format: biochemical
T3 construct: C-terminally His-tagged full-length human CHK-1 (FL-CHK-1); made in house; host or cells: baculovirus/insect cells
T3 sequence (O14757 1-476): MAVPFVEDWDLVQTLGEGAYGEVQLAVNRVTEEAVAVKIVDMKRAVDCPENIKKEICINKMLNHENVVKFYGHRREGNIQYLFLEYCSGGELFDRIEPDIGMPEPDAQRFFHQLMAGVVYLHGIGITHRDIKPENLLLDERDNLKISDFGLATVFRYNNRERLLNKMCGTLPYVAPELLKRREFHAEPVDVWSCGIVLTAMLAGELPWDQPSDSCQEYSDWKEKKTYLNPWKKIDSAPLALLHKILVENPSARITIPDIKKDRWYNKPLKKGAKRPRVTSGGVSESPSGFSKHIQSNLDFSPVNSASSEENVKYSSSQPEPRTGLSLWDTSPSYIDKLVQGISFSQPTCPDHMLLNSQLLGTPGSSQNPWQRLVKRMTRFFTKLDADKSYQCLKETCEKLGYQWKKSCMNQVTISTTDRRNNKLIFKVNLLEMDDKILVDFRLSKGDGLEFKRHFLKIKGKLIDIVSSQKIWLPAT
Source text: C-terminally His-tagged full-length human CHK-1 (FL-CHK-1) was expressed using the baculovirus/insect cell system. It contains 6 histidine residues (6×His-tag) at the C-terminus of the 476 amino acid human CHK-1. The protein was purified by conventional chromatographic techniques.
The production of ADP from ATP that accompanies phosphoryl transfer to the synthetic substrate peptide Syntide-2 ([…]) was coupled to oxidation of NADH using phosphoenolpyruvate (PEP) through the actions of pyruvate kinase (PK) and lactic dehydrogenase (LDH). The oxidation of NADH was monitored by following the decrease of absorbance at 340 nm (ε340=6.22 cm−1 mM^−1) using a HP8452 spectrophotometer. Typical reaction solutions contained: […]; 0.15 mM NADH; 28 units of LDH/ml; 16 units of PK/ml; 3 mM DTT; 0.125 mM Syntide-2; 0.15 mM ATP; 25 mM MgCl2 in 50 mM TRIS, pH 7.5; and 400 mM NaCl. Assays were initiated with 10 nM of FL-CHK-1. Ki values were determined by measuring initial enzyme activity in the presence of varying concentrations of test compounds. The data were analyzed using Enzyme Kinetic and Kaleidagraph software.

[3] = tested on: human umbilical vein endothelial cells (HUVEC); assay: HUVEC proliferation assay (VEGF-stimulated, MTT); format: cell-based; settings: Homo sapiens, HUVEC
Procedure, shortened: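 Proliferation measured by MTT reduction (4 h exposure, absorbance at 595) 72 hours after VEGF stimulation (final 6 ng/ml). Compound added to 24 h-starved HUVEC in F12K with 1% FBS and 0.1% final DMSO, one hour before the growth factor.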

[4] = tested on: lung cancer cells (line MV522); assay: Cancer cell proliferation (MV522) assay (MTT); format: cell-based; settings: MV522
Procedure, shortened: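 Proliferation was read by MTT reduction 72 h after compound addition, in a 4-day protocol with no starvation step. Two thousand MV522 cells were seeded in RPMI1640 with 10% FBS and 2 mM glutamine and given 1 day to attach before dosing.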

[5] = target: T4, FGF-R1 intracellular kinase domain (Homo sapiens, UniProt P11362, C488A/C584S/L457V); assay: FGF-R spectrophotometric assay; format: biochemical; settings: read-out: FGF-P Ki
T4 construct: starting from the endogenous methionine residue 456 to glutamate 766; made in house; host or cells: baculovirus expression system
T4 sequence (P11362 456-766 L457V/C488A/C584S): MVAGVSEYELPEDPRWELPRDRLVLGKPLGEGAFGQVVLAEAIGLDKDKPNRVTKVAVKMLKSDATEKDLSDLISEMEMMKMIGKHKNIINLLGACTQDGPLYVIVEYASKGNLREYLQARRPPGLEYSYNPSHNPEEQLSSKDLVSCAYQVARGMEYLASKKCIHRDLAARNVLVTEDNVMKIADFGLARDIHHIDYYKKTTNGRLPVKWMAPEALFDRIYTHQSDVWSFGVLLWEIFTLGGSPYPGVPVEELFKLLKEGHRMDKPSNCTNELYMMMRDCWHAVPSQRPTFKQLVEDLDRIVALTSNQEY
Source text: The intracellular kinase domain of human FGF-R1 was expressed using the baculovirus vector expression system starting from the endogenous methionine residue 456 to glutamate 766, according to the residue numbering system of Mohammadi et al., Mol. Cell.
The production of ADP from ATP that accompanies phosphoryl transfer was coupled to oxidation of NADH using phosphoenolpyruvate (PEP) and a system having pyruvate kinase (PK) and lactic dehydrogenase (LDH). The oxidation of NADH was monitored by following the decrease of absorbance at 340 nm (e340=6.22 cm^−1 mM^−1) using a Beckman DU 650 spectrophotometer. […] Assays were initiated with 5 to 40 nM of enzyme. Ki values were determined by measuring enzyme activity in the presence of varying concentrations of test compounds. The data were analyzed using Enzyme Kinetic and Kaleidagraph software.
The spectrophotometric assay was carried out as described above for VEGF-R2, except for the following changes in concentration: FGF-R=50 nM, ATP=2 mM, and poly(E4Y1)=15 mM.

LCK tyrosine kinase = target: T5, LCK tyrosine kinase (Homo sapiens, UniProt P06239, C224D/P223M); assay: LCK spectrophotometric assay; format: biochemical; settings: read-out: LCK-P Ki;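 also: recombinant LCK kinase activity on poly(E4Y1), ADP formation coupled through PK/LDH to NADH oxidation, followed as absorbance loss at 340 nm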
T5 construct: starting from amino acid residue 223 to the end of the protein at residue 509; made in house; host or cells: insect cells
T5 sequence (P06239 223-509 P223M/C224D): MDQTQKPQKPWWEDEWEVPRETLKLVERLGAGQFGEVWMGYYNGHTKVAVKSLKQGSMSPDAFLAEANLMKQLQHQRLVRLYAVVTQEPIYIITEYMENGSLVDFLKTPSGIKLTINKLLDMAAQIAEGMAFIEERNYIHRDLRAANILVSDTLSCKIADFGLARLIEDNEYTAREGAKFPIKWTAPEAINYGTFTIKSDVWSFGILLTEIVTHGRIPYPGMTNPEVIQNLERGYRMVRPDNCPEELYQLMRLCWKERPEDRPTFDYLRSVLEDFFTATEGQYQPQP

[6] = target: T6, TEK/Tie-2 intracellular kinase domain (Homo sapiens, UniProt Q02763); assay: TEK/Tie-2 spectrophotometric assay; format: biochemical; settings: read-out: TEK-P percent inhibition
T6 construct: residues 775 to 1124, with methionine added at the N-terminus; made in house; host or cells: baculovirus expression system
T6 sequence (Q02763 775-1124): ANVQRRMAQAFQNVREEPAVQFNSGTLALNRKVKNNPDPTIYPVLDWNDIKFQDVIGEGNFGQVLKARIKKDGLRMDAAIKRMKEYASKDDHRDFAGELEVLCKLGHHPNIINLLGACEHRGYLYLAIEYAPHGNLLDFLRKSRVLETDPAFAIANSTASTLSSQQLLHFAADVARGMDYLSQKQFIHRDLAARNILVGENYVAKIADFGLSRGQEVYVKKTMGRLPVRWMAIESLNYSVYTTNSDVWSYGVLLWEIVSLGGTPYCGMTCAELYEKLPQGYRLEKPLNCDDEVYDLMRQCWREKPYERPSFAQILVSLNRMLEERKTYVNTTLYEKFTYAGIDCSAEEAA
Protocol: The intracellular kinase domain (residues 775 to 1124, with methionine added at the N-terminus) of human TEK/Tie-2 was expressed using the baculovirus vector expression system. For assay purposes, the enzyme was autophosphorylated prior to use by incubation overnight at 4° C., at 10 μM enzyme concentration, with 4 mM ATP, 40 mM MgCl2, and 5 mM DTT in 200 mM Hepes buffer at ph 7.5, in 90:10 water:glycerol.
The production of ADP from ATP that accompanies phosphoryl transfer was coupled to oxidation of NADH using phosphoenolpyruvate (PEP) and a system having pyruvate kinase (PK) and lactic dehydrogenase (LDH). The oxidation of NADH was monitored by following the decrease of absorbance at 340 nm (e340=6.22 cm^−1 mM^−1) using a Beckman DU 650 spectrophotometer. Assay conditions for phosphorylated VEGF-R2Δ50 (indicated as FLVK-P in the tables below) were the following: 1 mM PEP; 250 μM NADH; 50 units of LDH/mL; 20 units of PK/mL; 5 mM DTT; 5.1 mM poly(E4Y1); 1 mM ATP; and 25 mM MgCl2 in 200 mM Hepes, pH 7.5. Assay conditions for unphosphorylated VEGF-R2Δ50 (indicated as FLVK in the tables) were the following: 1 mM PEP; 250 μM NADH; 50 units of LDH/mL; 20 units of PK/mL; 5 mM DTT; 20 mM poly(E4Y1); 3 mM ATP; and 60 mM MgCl2 and 2 mM MnCl2 in 200 mM Hepes, pH 7.5. Assays were initiated with 5 to 40 nM of enzyme. Ki values were determined by measuring enzyme activity in the presence of varying concentrations of test compounds. The data were analyzed using Enzyme Kinetic and Kaleidagraph software.
The spectrophotometric assay was carried out as described above for VEGF-R2, except for the following changes in concentration: TEK/Tie-2=200 nM, MgCl2=40 mM, and ATP=2 mM.

CDK2/Cyclin A complex = CDK2/Cyclin A complex (Homo sapiens, UniProt P24941); assay: CDK2/Cyclin A assay ([32P]ATP incorporation into Rb fragment); format: biochemical; settings: μM
Protocol: CDK2 was purified using published methodology (Rosenblatt et al., J. Mol. Biol., 230, 1317-1319 (1993)) from insect cells that had been infected with a baculovirus expression vector. Cyclin A was purified from E. coli cells expressing full-length recombinant cyclin A, and a truncated cyclin A construct was generated by limited proteolysis and purified as described previously (Jeffrey et al., Nature, 376, 313-320 (1995)).
Cyclin-dependent kinase activity was measured by quantifying the enzyme-catalyzed, time-dependent incorporation of radioactive phosphate from [^32P]ATP into a recombinant fragment of the retinoblastoma protein. Unless noted otherwise, assays were performed in 96-well plates in a total volume of 50 μL, in the presence of 10 mM HEPES (N-[2-hydroxyethyl]piperazine-N′-[2-ethanesulfonic acid]) (pH 7.4), 10 mM MgCl2, 25 μM adenosine triphosphate (ATP), 1 mg/mL ovalbumin, 5 μg/mL leupeptin, 1 mM dithiothreitol, 10 mM β-glycerophosphate, 0.1 mM sodium vanadate, 1 mM sodium fluoride, 2.5 mM ethylene glycol-bis(β-aminoethyl ether)-N,N,N′N′-tetraacetic acid (EGTA), 2% (v/v) dimethylsulfoxide, and 0.03-0.2 μCi [^32P]ATP. The substrate (0.3-0.5 μg) was purified recombinant retinoblastoma protein fragment (Rb) (residues 386-928 of the native retinoblastoma protein; 62.3 kDa, containing the majority of the phosphorylation sites found in the native 106-kDa protein, as well as a tag of six histidine residues for ease of purification). Reactions were initiated with CDK2 (150 nM CDK2/Cyclin A complex) or CDK4 (50 nM CDK4/Cyclin D3 complex), incubated at 30° C., and terminated after 20 minutes by the addition of ethylenediaminetetraacetic acid (EDTA) to 250 mM. The phosphorylated substrate was then captured on a nitrocellulose membrane using a 96-well filtration manifold, and unincorporated radioactivity was removed by repeated washing with 0.85% phosphoric acid. Radioactivity was quantified by exposing the dried nitrocellulose membranes to a phosphorimager. Apparent Ki values were measured by assaying enzyme activity in the presence of different compound concentrations and subtracting the background radioactivity measured in the absence of enzyme. The kinetic parameters (kcat, Km for ATP) were measured for each enzyme under the usual assay conditions by determining the dependence of initial rates on ATP concentration. The data were fit to an equation for competitive inhibition using Kaleidagraph (Synergy Software), or were fit to an equation for competitive tight-binding inhibition using the software KineTic (BioKin, Ltd.). Measured Ki values for known inhibitors against CDK4 and CDK2 agreed with published IC50 values. […]

CDK4/Cyclin D3 complex = target: T7, CDK4/Cyclin D3 complex (Homo sapiens, UniProt P11802); assay: CDK4/Cyclin D assay ([32P]ATP incorporation into Rb fragment); format: biochemical; settings: μM
T7 construct: made in house; host or cells: insect cells co-infected with baculovirus vectors
T7 sequence (P11802 whole entry, the tested form may be a part): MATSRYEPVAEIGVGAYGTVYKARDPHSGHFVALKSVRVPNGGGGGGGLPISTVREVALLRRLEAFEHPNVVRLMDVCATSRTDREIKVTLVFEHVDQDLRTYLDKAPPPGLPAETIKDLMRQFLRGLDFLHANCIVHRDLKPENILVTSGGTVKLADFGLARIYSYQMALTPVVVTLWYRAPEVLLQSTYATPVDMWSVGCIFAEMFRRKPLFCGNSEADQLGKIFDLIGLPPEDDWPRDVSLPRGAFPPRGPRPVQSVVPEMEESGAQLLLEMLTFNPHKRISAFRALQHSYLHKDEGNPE
T7 sequence (P30281 whole entry partner, the tested form may be a part): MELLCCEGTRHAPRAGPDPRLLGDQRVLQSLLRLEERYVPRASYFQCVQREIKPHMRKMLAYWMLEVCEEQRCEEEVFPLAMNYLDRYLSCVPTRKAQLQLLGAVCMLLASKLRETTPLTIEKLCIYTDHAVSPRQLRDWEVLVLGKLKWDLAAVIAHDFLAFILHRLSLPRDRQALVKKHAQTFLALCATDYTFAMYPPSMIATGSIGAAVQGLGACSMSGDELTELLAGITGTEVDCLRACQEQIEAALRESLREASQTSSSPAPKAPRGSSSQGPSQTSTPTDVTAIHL
Protocol: A complex of human CDK4 and cyclin D3, or a complex of cyclin D1 and a fusion protein of human CDK4 and glutathione-S-transferase (GST-CDK4), was purified using traditional biochemical chromatographic techniques from insect cells that had been co-infected with the corresponding baculovirus expression vectors.
Cyclin-dependent kinase activity was measured by quantifying the enzyme-catalyzed, time-dependent incorporation of radioactive phosphate from [^32P]ATP into a recombinant fragment of the retinoblastoma protein. Unless noted otherwise, assays were performed in 96-well plates in a total volume of 50 μL, in the presence of 10 mM HEPES (N-[2-hydroxyethyl]piperazine-N′-[2-ethanesulfonic acid]) (pH 7.4), 10 mM MgCl2, 25 μM adenosine triphosphate (ATP), 1 mg/mL ovalbumin, 5 μg/mL leupeptin, 1 mM dithiothreitol, 10 mM β-glycerophosphate, 0.1 mM sodium vanadate, 1 mM sodium fluoride, 2.5 mM ethylene glycol-bis(β-aminoethyl ether)-N,N,N′N′-tetraacetic acid (EGTA), 2% (v/v) dimethylsulfoxide, and 0.03-0.2 μCi [^32P]ATP. The substrate (0.3-0.5 μg) was purified recombinant retinoblastoma protein fragment (Rb) (residues 386-928 of the native retinoblastoma protein; 62.3 kDa, containing the majority of the phosphorylation sites found in the native 106-kDa protein, as well as a tag of six histidine residues for ease of purification). Reactions were initiated with CDK2 (150 nM CDK2/Cyclin A complex) or CDK4 (50 nM CDK4/Cyclin D3 complex), incubated at 30° C., and terminated after 20 minutes by the addition of ethylenediaminetetraacetic acid (EDTA) to 250 mM. The phosphorylated substrate was then captured on a nitrocellulose membrane using a 96-well filtration manifold, and unincorporated radioactivity was removed by repeated washing with 0.85% phosphoric acid. Radioactivity was quantified by exposing the dried nitrocellulose membranes to a phosphorimager. Apparent Ki values were measured by assaying enzyme activity in the presence of different compound concentrations and subtracting the background radioactivity measured in the absence of enzyme. The kinetic parameters (kcat, Km for ATP) were measured for each enzyme under the usual assay conditions by determining the dependence of initial rates on ATP concentration. The data were fit to an equation for competitive inhibition using Kaleidagraph (Synergy Software), or were fit to an equation for competitive tight-binding inhibition using the software KineTic (BioKin, Ltd.). Measured Ki values for known inhibitors against CDK4 and CDK2 agreed with published IC50 values. The specific activity of CDK4 was the same whether complexed to full-length cyclin D3 or the truncated Cyclin D3 construct; both complexes also yielded very similar Ki values for selected inhibitors.

[7] = with albumin, read-out: Huvec + Albumin IC50

Row | Structure (SMILES) | Ki [1] | Ki [2] | Ki (FL-CHK-1) | IC50 ([3]; read-out: HUVEC IC50) | IC50 [4] | Ki [5] | Ki (LCK tyrosine kinase) | inhibition at 1 µM [6] | IC50 [3, 7] | Ki (CDK2/Cyclin A complex) | Ki (CDK4/Cyclin D3 complex) | melting point
1 | Cc1ccc2cc(NC(=O)c3cccc(OCc4cncc5ccccc45)c3)ccc2n1 [Example K-3, 3-(Isoquinolin-4-yl)methoxy-N-(2-methyl-quinolin-6-yl)-benzamide hydrochloride] | 1.66 nM | 3.4 nM | 26000 nM | 430 nM | > 10000 nM | – | – | – | – | – | – | –
2 | COc1ccc(Nc2cc(CCc3cccc(C(=O)Nc4cc(Cl)c(N(C)C)c(Cl)c4)c3)[nH]n2)cn1 [Example G-7, N-(3,5-Dichloro-4-dimethylaminophenyl)-3-{2-[5-(6-methoxy-pyridin-3-yl)amino-2H-pyrazol-3-yl]ethyl}benzamide] | 0.65 nM | 0.25 nM | – | 17 nM | > 10000 nM | 23 nM | 27 nM | 14% | 190 nM | – | – | –
3 | COc1cc(NC(=O)c2cccc(SCc3cc(Nc4ccccc4)n[nH]3)c2)cc(OC)c1OC [Example E-2] | 4.79 nM | 0.95 nM | – | 55 nM | > 10000 nM | – | – | – | – | > 100 µM | > 100 µM | 67 to 69 °C
4 | COc1ccc(Nc2cc(CCc3cccc(C(=O)Nc4ccc(N5CCCC5)c(C(F)(F)F)c4)c3)[nH]n2)cn1 [Example G-8, 3-{2-[5-(6-Methoxypyridin-3-yl)amino-2H-pyrazol-3-yl]-ethyl}-N-(4-pyrrolidin-1-yl-3-trifluoromethylphenyl)benzamide] | 0.73 nM | 0.035 nM | – | 12 nM | 8700 nM | 20 nM | 5.8 nM | 62% | 114 nM | – | – | –
